Test: gradient 5% acetonitrile 3 min, to 50% in 2 min, to 85% in 15 min, held 3 min, 100 µL/min
Conditions: column: Zorbax Extend-C18 2.1 x 50 mm; eluents: water / acetonitrile, 0.1% formic acid
Summary of the method: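 Over 3 months, pure standards in mixtures of ~100 molecules were run by HPLC coupled to a quadrupole time-of-flight mass spectrometer in positive and negative ionization mode. The column was a Zorbax Extend-C18 (2.1 × 50 mm, 1.8 μm) at 100 μL/min, eluted with water and acetonitrile each holding 0.1% formic acid, with 40 μL dead and 900 μL dwell volumes. Retention time was determined from adduct peaks chosen by software and checked manually.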

Row | RP-LC retention time [s] | SMILES
1 | 890 | CCn1nccc1C(=O)N1CCCC1c1ccc(C)cc1 (configuration not stated)
2 | 699 | O=c1c2scc(-c3cccc(F)c3)c2ncn1Cc1cccnc1
3 | 692 | CN(C)S(=O)(=O)c1ccc2c(c1)N(CC(=O)NC1CCCCCCC1)C(=O)C1CCCCN21 (configuration not stated)
4 | 778 | CCOC(=O)C1C(=O)NC(SC)=C(C#N)C1c1ccccc1[N+](=O)[O-] (configuration not stated)
5 | 814 | CCC(C)NC(=O)NC1CCN(C2=NS(=O)(=O)C(c3cccc(Cl)c3)=C2C)CC1 (configuration not stated)
6 | 752 | Cn1c(=O)n(C)c2cc(N3CCOCC3)c(NC(=O)Cc3ccccc3)cc21
7 | 546 | CCCCN(C)C(=O)CCC(=O)Nc1ccc2nc(N3CCN(C)CC3)cc(C)c2c1
8 | 843 | COc1cc(-c2cccc(Cl)c2)nc2ccc(NC(=O)Cc3cccs3)cc12
9 | 787 | COC(=O)C1=CN(c2ccccc2)c2cc(F)ccc2S1(=O)=O
10 | 944 | Cc1csc(-c2cc(S(=O)(=O)Nc3ccc(Cl)cc3F)cn2CC(=O)N2CCCC2)n1
11 | 743 | CCS(=O)(=O)N1CC(=O)N(c2ccc(F)cc2)C(C)(C(=O)NCc2ccc(F)cc2)C1 (configuration not stated)
12 | 684 | COCCCNC(=O)C1CCN(Cc2cc3ccccc3n2Cc2ccccc2)CC1
13 | 597 | Brc1ccc(-c2ccc(CNCC3CCNCC3)o2)cc1
14 | 602 | COc1cc(NC(=O)COc2cc(C)nc(N3CCCC3)n2)cc(OC)c1OC
15 | 877 | COc1cccc(NC(=O)N2CCCC2c2nc(-c3cccc(C)c3)no2)c1 (configuration not stated)
16 | 633 | O=C(CN1C(=O)NC2(CCCCC2)C1=O)Nc1cccc(F)c1
17 | 721 | COc1cccc(NS(=O)(=O)c2cc(-c3[nH]ncc3C(=O)N3CCCCC3)oc2C)c1
18 | 723 | Cc1nc2cc(N3CCCC(C(=O)NC4CCCCC4)C3)cnc2nc1C (configuration not stated)
19 | 804 | Cc1cc(C)cc(C(=O)N2CCC(n3c(-c4ccoc4)nc4cccnc43)C2)c1 (configuration not stated)
20 | 758 | Cc1cc(=O)n(CC(=O)Nc2ccc(Cl)cc2)c(N2CCC(C)CC2)n1
21 | 826 | COCc1cc2nn(CC(=O)Nc3ccc(F)cc3C)c(=O)n2c(-c2ccccc2)n1
22 | 970 | Cc1csc(-c2cc(S(=O)(=O)NC3CCCC3)c(C)n2C)n1

Row | RP-LC retention time [s] | SMILES
23 | 1020 | O=C1Nc2cc(C(=O)N3CCC(Cc4ccccc4)CC3)ccc2N2CCCCC12 (configuration not stated)
24 | 715 | O=C(Cn1nc2c(cc1=O)CCCC2)Nc1cccc(N2CCCCS2(=O)=O)c1
25 | 1110 | Cc1ccc(CS(=O)(=O)N2CCc3nc(-c4ccc(F)cc4)ncc3C2)cc1
26 | 643 | Cc1ccc(CNC(=O)C2CCN(c3cncnc3N3CCCCC3)CC2)o1
27 | 595 | CCCNC(=O)C1CCCN(c2ccc(SCC(=O)Nc3ccc(OCC)cc3)nn2)C1 (configuration not stated)
28 | 889 | CCc1ccc2[nH]c3c(c(=O)c2c1)CN(CC(=O)NCc1ccc(SC)cc1)CC3
29 | 561 | COCCNC(=O)c1cn2cccc(C)c2n1
30 | 1220 | CSc1ccc(C2c3[nH]c4ccccc4c3CCN2C(=O)c2cccs2)cc1 (configuration not stated)
31 | 933 | N#Cc1ccc(NC(=O)Cn2cccc(-c3nc(-c4ccc(Cl)cc4)no3)c2=O)cc1
32 | 1040 | Cc1ccccc1-c1nnc(CSc2nnc(NC(=O)c3cccc(Cl)c3)s2)o1
33 | 629 | CC1Cc2ccccc2N1C(=O)c1ccc(=O)n(CCC(=O)N2CCN(c3ccccn3)CC2)n1 (configuration not stated)
34 | 964 | COc1ccc(-c2noc(C3CC(=O)N(c4ccccc4)C3)n2)cc1OC (configuration not stated)
35 | 907 | CCCN1C(=O)c2c(C(=O)NCCc3ccc(C)cc3)ncn2CC1(C)C(=O)NCCC(C)C (configuration not stated)
36 | 680 | CN1CCC(N(C)C(=O)CN2C(=O)C(Oc3ccc(F)cc3)C23CCCCC3)CC1 (configuration not stated)
37 | 825 | COCCCN1C(=O)CSc2c(c3ccccc3n2C)C1C(=O)NCCCOC(C)C (configuration not stated)
38 | 1010 | COc1cc(-c2noc(C3CC(=O)N(c4cccc(Cl)c4)C3)n2)cc(OC)c1OC (configuration not stated)
39 | 880 | Cc1ccccc1-c1noc(Cn2ccn(-c3ccccc3C)c(=O)c2=O)n1
40 | 892 | COc1ccccc1Cc1noc(C2CN(C(=O)c3ccc(Cl)s3)C2)n1
41 | 1060 | Cc1oc(-c2ccccc2)nc1Cn1ccn2nc(-c3ccc4c(c3)OCO4)cc2c1=O
42 | 878 | CCOC(=O)c1cn(Cc2cccc(F)c2)c2nc(C)ccc2c1=O
43 | 748 | COc1cc(NS(=O)(=O)c2cc3n(c2)CCN(C(C)C)C3=O)cc(OC)c1
44 | 949 | O=C(Cc1csc2nc(-c3ccccc3)cn12)N1CCN(c2cccc(Cl)c2)CC1

Row | RP-LC retention time [s] | SMILES
45 | 853 | CCOC(=O)c1sc(NC(=O)Cn2nc3c(cc2=O)CCCCC3)nc1C
46 | 780 | COC(=O)c1cc2c(=O)n(-c3ccc4c(c3)OCCO4)ccc2nc1C
47 | 1360 | Cc1cc(Cl)ccc1NS(=O)(=O)c1cc(-c2nc(C(C)(C)C)cs2)cs1
48 | 600 | COCc1cn(CC2CCCN(Cc3cn(C)c4ccc(OC)cc34)C2)nn1 (configuration not stated)
49 | 989 | CCOC(=O)c1c(S(=O)(=O)N2CCc3ccccc3C2)c(C)n(C)c1C
50 | 1020 | CCOC(=O)c1sc2nc(NC(=O)Cc3ccccc3)sc2c1C
51 | 813 | Cc1ccc(CNC(=O)C2(C)Cn3cnc(C(=O)NCc4cccc(C)c4)c3C(=O)N2C2CC2)cc1 (configuration not stated)
52 | 881 | COc1ccc(-c2nc(-c3ccc4ncn(C(C)C)c4c3)no2)c(C)c1
53 | 724 | CCOc1ccc(NC(=O)C2CCCN(c3nnc4cccc(C)n34)C2)cc1 (configuration not stated)
54 | 675 | CCc1ccc(-c2cn3cc(C(=O)N(CC)CC)ccc3n2)cc1
55 | 803 | O=C(NC1CC1)C1CCN(S(=O)(=O)c2ccc(-c3noc(C4CC4)n3)cc2)CC1
56 | 881 | O=C(NCC1CCN(C(=O)Oc2ccccc2)CC1)Nc1ccccc1Cl
57 | 846 | Cc1cc(-c2nnc(C3CCC3)o2)c(C)n1CC(=O)Nc1ccccc1
58 | 1100 | CCc1ccc(NC(=O)Cn2nc(N3CCC(C)CC3)c3ccccc3c2=O)cc1
59 | 677 | CCc1cc(=O)n(CC(=O)NCc2ccc3c(c2)OCO3)c(N2CCOCC2)n1
60 | 678 | COC(=O)c1ccc(C(=O)OC)c(NC(=O)N2CCC(CN3CCC(C)CC3)CC2)c1
61 | 807 | O=C(COc1ccccc1Cl)NCCCn1nc(-c2ccc(F)cc2)ccc1=O
62 | 676 | Cc1ccc(N2CC(c3nc(-c4ccc5c(c4)ncn5CCC(=O)N4CCCC4)no3)CC2=O)cc1 (configuration not stated)
63 | 801 | CC1CCC2(CC1)NC(=O)N(CC(=O)NCc1ccc(F)cc1)C2=O (configuration not stated)
64 | 1070 | O=C(C1CCN(c2nc3ccc(-c4cccc(F)c4)nc3s2)CC1)N1CCCCC1
65 | 671 | CCc1ccc(C2=C(C)C(N3CCC(C(=O)NCCN4CCCC4)CC3)=NS2(=O)=O)cc1
66 | 768 | Cc1ccc(NC(=O)NCC(c2cccnc2)c2cn(C)c3ccccc23)c(Cl)c1 (configuration not stated)

Row | RP-LC retention time [s] | SMILES
67 | 1260 | CN(C1CCCCC1)S(=O)(=O)c1ccc(C(=O)Nc2nc3c(s2)Cc2ccccc2-3)cc1
68 | 1090 | COc1ccc(-c2ncc3c(n2)CCN(S(=O)(=O)c2ccccc2C(F)(F)F)C3)cc1
69 | 938 | COc1cc(-c2noc(Cn3cnc4c(cnn4-c4ccc(F)cc4)c3=O)n2)cc(OC)c1OC
70 | 678 | COc1ccccc1CC(=O)Nc1cccn2c(C)nnc12
71 | 620 | CCn1cnc2ccc(-c3noc(CNC(=O)c4ccccc4)n3)cc21
72 | 677 | COc1ccc(C(=O)N(C)CC2(C)CCOCC2)cc1OC
73 | 758 | CSc1cccc(NC(=O)C2CCN(c3cnc4nc(C)c(C)nc4c3)CC2)c1
74 | 910 | CCN1C(=O)COc2ccc(-c3csc(NC(=O)C(C)(C)C)n3)cc21
75 | 758 | COC(=O)CC(=O)Nc1nnc(SCc2nnc(-c3ccccc3C)o2)s1
76 | 1050 | COc1ccc(CCNc2nc(-c3ccc(Cl)cc3)cs2)cc1OC
77 | 676 | Cc1c(F)cccc1NC(=O)N1CC(F)(F)C[C@H]1CN1CCCC1
78 | 598 | COCCN1CCC2(CC1)CN(Cc1ccc(OC)c(C)c1)Cc1ccccc1O2
79 | 956 | O=C(O)c1cnc(N2CCCCC2)nc1-c1ccccc1
80 | 800 | CC(C)NC(=O)c1ccc(OCC2CCCN(C(=O)c3ccc(C#N)cc3)C2)cc1 (configuration not stated)
81 | 1270 | Cc1ccc(C)c(N2CCN(S(=O)(=O)c3cc(-c4cnn5c(C)cc(C)nc45)ccc3C)CC2)c1
82 | 818 | O=C(Nc1ccc(OCC(=O)N2CCN(c3ccccc3Cl)CC2)nc1)C1CC1
83 | 678 | COc1ccc(S(=O)(=O)Nc2ccc(C)n(CC(=O)O)c2=O)cc1
84 | 745 | COc1cc(OC)cc(C(=O)NC2CCN(c3cc(-c4ccc(F)cc4)[nH]n3)C2)c1 (configuration not stated)
85 | 1110 | Cc1nc2cc(-c3noc(C(C)Oc4cccc(Cl)c4)n3)ccc2n(C)c1=O (configuration not stated)
86 | 649 | CCN1CCN(CCCNC(=O)C(C)n2c(=O)c(C(F)(F)F)nc3cc(C)c(C)cc32)CC1 (configuration not stated)
87 | 605 | CN1CCN(C(=O)c2ccc(S(=O)(=O)c3ccccc3)s2)CC1

Source: the METLIN SMRT retention time set (Domingo-Almenara et al. 2019)
